Test results from patent US9440982B2 (Eolas Therapeutics, Inc., priority 2012, dated 2016).
pIC50: −log10 of the molar value.

Key:
[1] = target: T1, cytochrome P450 3A4 isoform (Homo sapiens, UniProt P08684); experiment: Cytochrome P450 inhibition assay (midazolam hydroxylation); assay type: in vitro ADME; conditions: 10 μM test compound; midazolam at approximately its Km; human liver microsomes; 10 µM
T1 construct: pre-incubated with human liver microsomes and NADPH; from tissue; host or cells: human liver microsomes
How it was run: (§1)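 Human liver microsomes; CYP3A4 activity as midazolam 1′-hydroxylation with substrate near Km, with or without 10 μM test compound, read as percent inhibition. For time-dependent inhibition, parallel samples were preincubated 30 min with NADPH before substrate, and percent inhibition compared with non-preincubated samples.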

OX2 = target: T2, OX2 (Homo sapiens, UniProt O43614); experiment: Orexin receptor cell-based functional assay, [Ca2+]i by FLIPR, CHO-OX2 cells; conditions: [Ca2+]i by FLIPR, antagonist dose-range 0.1 nM-10 μM, EC90 of OXA, read-out: OX2
T2 construct: expressed in transfected cells; host or cells: CHO (CHO-OX2, kept under selection antibiotic)
T2 sequence (O43614 1-444): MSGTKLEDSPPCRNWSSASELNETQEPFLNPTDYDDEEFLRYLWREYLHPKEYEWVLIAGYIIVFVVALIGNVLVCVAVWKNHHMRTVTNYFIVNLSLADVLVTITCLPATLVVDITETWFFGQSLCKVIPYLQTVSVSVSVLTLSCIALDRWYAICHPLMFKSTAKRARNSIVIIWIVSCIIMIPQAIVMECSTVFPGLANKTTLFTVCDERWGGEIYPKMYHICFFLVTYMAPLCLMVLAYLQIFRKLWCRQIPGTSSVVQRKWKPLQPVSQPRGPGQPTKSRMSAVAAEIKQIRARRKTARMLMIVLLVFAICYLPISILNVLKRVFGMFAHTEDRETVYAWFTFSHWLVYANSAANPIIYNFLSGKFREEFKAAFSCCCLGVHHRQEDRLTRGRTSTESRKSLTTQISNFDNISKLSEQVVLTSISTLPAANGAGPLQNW
How it was run: (§2)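 CHO cells expressing human OX1 or OX2 loaded with calcium dye plus 2.5 mM probenecid at 37° C (calcium4, 30 min, or calcium6, 2 h), then exposed to compounds (0.1 nM-10 μM) for 30 min. Intracellular Ca2+ measured on FLIPR; antagonist format.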

CYP3A4 = target: T3, CYP3A4 (Homo sapiens, UniProt P08684); experiment: Cytochrome P450 inhibition assay (midazolam hydroxylation); assay type: in vitro ADME; conditions: human, human liver microsomes, probe midazolam (hydroxylation to 1′-hydroxymidazolam), 10 μM test compound, midazolam at approximately its Km
T3 construct: pre-incubated with human liver microsomes and NADPH; from tissue; host or cells: human liver microsomes
How it was run: as §1

OX1 = target: T4, OX1 (Homo sapiens, UniProt O43613); experiment: Orexin receptor cell-based functional assay, [Ca2+]i by FLIPR, CHO-OX1 cells; conditions: CHO-OX1 cells, [Ca2+]i by FLIPR, antagonist dose-range 0.1 nM-10 μM, EC90 of OXA; read-out: OX1
T4 construct: expressed in transfected cells; host or cells: CHO (CHO-OX1, kept under selection antibiotic)
T4 sequence (O43613 1-425): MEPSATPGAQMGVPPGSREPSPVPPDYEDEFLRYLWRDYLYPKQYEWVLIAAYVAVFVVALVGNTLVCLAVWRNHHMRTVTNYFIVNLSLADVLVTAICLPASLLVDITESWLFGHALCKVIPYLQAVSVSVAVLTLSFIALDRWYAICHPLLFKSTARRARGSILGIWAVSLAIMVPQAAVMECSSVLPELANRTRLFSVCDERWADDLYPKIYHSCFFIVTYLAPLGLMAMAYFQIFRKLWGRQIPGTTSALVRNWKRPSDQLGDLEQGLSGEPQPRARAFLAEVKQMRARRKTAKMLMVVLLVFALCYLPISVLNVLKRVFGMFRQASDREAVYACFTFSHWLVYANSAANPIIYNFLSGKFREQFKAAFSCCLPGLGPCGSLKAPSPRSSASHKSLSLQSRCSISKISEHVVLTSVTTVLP
How it was run: as §2

T3 sequence (P08684 whole entry): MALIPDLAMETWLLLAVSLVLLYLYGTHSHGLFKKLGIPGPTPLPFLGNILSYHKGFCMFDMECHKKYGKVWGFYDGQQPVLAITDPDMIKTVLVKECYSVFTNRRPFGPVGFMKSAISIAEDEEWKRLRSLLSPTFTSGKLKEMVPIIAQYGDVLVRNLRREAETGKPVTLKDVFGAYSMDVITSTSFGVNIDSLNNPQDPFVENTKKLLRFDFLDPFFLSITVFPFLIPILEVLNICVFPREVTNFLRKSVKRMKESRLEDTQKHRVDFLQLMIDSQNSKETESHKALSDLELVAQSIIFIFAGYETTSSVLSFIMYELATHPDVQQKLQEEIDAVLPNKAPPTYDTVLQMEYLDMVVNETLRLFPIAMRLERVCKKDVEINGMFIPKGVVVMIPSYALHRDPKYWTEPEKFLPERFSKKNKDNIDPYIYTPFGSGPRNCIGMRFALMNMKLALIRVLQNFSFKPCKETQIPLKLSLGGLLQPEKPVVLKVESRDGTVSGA
T1 sequence (P08684 whole entry, canonical isoform): as the sequence (P08684 whole entry) above

Compound	% CYP3A4 Inhibition [1]	pIC50 (OX2)	inhibition at 10 µM (CYP3A4)	pIC50 (OX1)
Cc1nc(C(=O)N2CCC[C@@H](C)[C@H]2CNc2nc3cc(Cl)ccc3o2)c(-c2ccc(F)cc2)s1 [Example A13, ((2S,3R)-2-(((5-Chlorobenzo[d]oxazol-2-yl)amino)methyl)-3-methylpiperidin-1-yl)(5-(4-fluorophenyl)-2-methylthiazol-4-yl)methanone]	83%	–	–	–
Cc1nc(C(=O)N2CCC[C@@H](C)[C@H]2CNc2nc3cc(Cl)ccc3o2)c(-c2ccc(F)cc2)s1 [Example A84, ((2S,3R)-2-(((5-Chlorobenzo[d]oxazol-2-yl)amino)methyl)-3-methylpiperidin-1-yl)(5-(4-fluorophenyl)-2-methylthiazol-4-yl)methanone]	50%	–	–	–
Cc1ccc(-n2nccn2)c(C(=O)N2CCC[C@@H](C)[C@H]2CNc2ncc(F)cc2F)c1 [Example A91, ((2S,3R)-2-(((3,5-Difluoropyridin-2-yl)amino)methyl)-3-methylpiperidin-1-yl)(5-methyl-2-(2H-1,2,3-triazol-2-yl)phenyl)methanone]	58%	–	–	–
Cc1ccc(-n2nccn2)c(C(=O)N2CCC[C@@H](C)[C@H]2CNc2ncc(Cl)cc2F)c1 [Example A92, ((2S,3R)-2-(((5-Chloro-3-fluoropyridin-2-yl)amino)methyl)-3-methylpiperidin-1-yl)(5-methyl-2-(2H-1,2,3-triazol-2-yl)phenyl)methanone]	91%	–	–	–
Cc1ccc(C(=O)N2CCC[C@@H](C)[C@H]2CNc2ncc(C(F)(F)F)cn2)c(-n2nccn2)c1F [Example A357, (3-fluoro-4-methyl-2-(2H-1,2,3-triazol-2-yl)phenyl)((2S,3R)-3-methyl-2-(((5-(trifluoromethyl)pyrimidin-2-yl)amino)methyl)piperidin-1-yl)methanone]	–	< 5.30	83%	8.30
Cc1ccc(C(=O)N2CCC[C@@H](C)[C@H]2CNc2ncc(C(F)(F)F)cn2)c(-c2ncccn2)c1F [Example A359, (3-fluoro-4-methyl-2-(pyrimidin-2-yl)phenyl)((2S,3R)-3-methyl-2-(((5-(trifluoromethyl)pyrimidin-2-yl)amino)methyl)piperidin-1-yl)methanone]	–	< 5.30	52%	8.22

Results, then the molecule that gave them:

% CYP3A4 Inhibition [1]	pIC50 (OX2)	inhibition at 10 µM (CYP3A4)	pIC50 (OX1)	Compound
–	5.52	60%	8.40	Cc1cc(C(=O)N2CCC[C@@H](C)[C@H]2CNc2ncc(C(F)(F)F)cn2)c(-n2nccn2)cc1F [Example A369, (4-fluoro-5-methyl-2-(2H-1,2,3-triazol-2-yl)phenyl)((2S,3R)-3-methyl-2-(((5-(trifluoromethyl)pyrimidin-2-yl)amino)methyl)piperidin-1-yl)methanone]
–	6.31	83%	9.00	Cc1cc(F)c(-n2nccn2)c(C(=O)N2CCC[C@@H](C)[C@H]2CNc2ccc(C(F)(F)F)cn2)c1 [Example A372, (3-Fluoro-5-methyl-2-(2H-1,2,3-triazol-2-yl)phenyl)((2S,3R)-3-methyl-2-(((5-(trifluoromethyl)pyridin-2-yl)amino)methyl)piperidin-1-yl)methanone]
–	5.72	60%	9.00	Cc1cc(F)c(-n2nccn2)c(C(=O)N2CCC[C@@H](C)[C@H]2CNc2ncc(C(F)(F)F)cn2)c1 [Example A373, (3-fluoro-5-methyl-2-(2H-1,2,3-triazol-2-yl)phenyl)((2S,3R)-3-methyl-2-(((5-(trifluoromethyl)pyrimidin-2-yl)amino)methyl)piperidin-1-yl)methanone]
–	6.77	48%	8.10	Cc1cc(F)c(-c2ncccn2)c(C(=O)N2CCC[C@@H](C)[C@H]2CNc2ncc(C(F)(F)F)cn2)c1 [Example A375, (3-fluoro-5-methyl-2-(pyrimidin-2-yl)phenyl)((2S,3R)-3-methyl-2-(((5-(trifluoromethyl)pyrimidin-2-yl)amino)methyl)piperidin-1-yl)methanone]
